# Assay results published in patent US20190284129A1, “LIPID COMPOUNDS AND COMPOSITIONS AND THEIR OPTHALMIC USE” (BIOZEP AS, priority 2015, published 2019).
# Several values for one entry are separate records, joined by “and”; a condition that tells them apart may be missing. Identical values can stand only once.
# What was measured:
# Format in all cases: cell-based
# NF-κB pathway = experiment: NF-κB luciferase reporter assay in NF-κB Reporter-HEK293 cells, TNFa stimulated; settings: FIG. 5
# From the text: The NF-κB reporter (luc)-HEK293 cell line is designed for monitoring the nuclear factor Kappa B (NF-κB) signal transduction pathways. It contains a firefly luciferase gene driven by four copies of NF-κB response element located upstream of the minimal TATA promoter. After activation by pro-inflammatory cytokines or stimulants of lymphokine receptors, endogenous NF-κB transcription factors bind to the DNA response elements, inducing transcription of the luciferase reporter gene.
# NF-κB Reporter-HEK293 cells were cultured in MEM medium with 10% FBS, 1% non-essential amino acids, 1 mM Na-pyruvate, 1% Penn-strep, and 100 µg/ml of Hygromycin B.
# To perform the NF-κB luciferase reporter assay, NF-κB Reporter-HEK293 cells were seeded at 40,000 cells per well into white clear-bottom 96-well microplate in 45 μl of growth medium without Hygromycin B. Cells were incubated at 37° C. and 5% CO2 overnight to allow them to recover and reattach. The following day a series of dilutions of compounds were made in assay medium (MEM medium with 0.5% FBS, 1% non-essential amino acids, 1 mM Na-pyruvate, 1% Penn-strep). The medium was removed from the wells and 45 μl of diluted compound was added to the cells. Assay medium with DMSO was added to the untreated control wells and cell-free control wells. The final concentration of DMSO was 0.25%. The cells were incubated overnight at 37° C. in CO2 incubator. […]
# After treatment, cells were then lysed and a luciferase assay was performed using the ONE-Step luciferase assay system. […] Luminescence was measured using a luminometer (BioTek Synergy™ 2 microplate reader).
# Reporter assays were performed in triplicate at each concentration. The luminescence intensity data were analyzed using the computer software, Graphpad Prism. In the absence of the compound, the luminescence intensity (Lt) in each data set was defined as 100%. In the absence of cells, the luminescence intensity (Lb) in each data set was defined as 0%. The percent luminescence in the presence of each compound was calculated according to the following equation: % Luminescence=(L−Lb)/(Lt−Lb), where L=the luminescence intensity in the presence of the compound, Lb=the luminescence intensity in the absence of cells, and Lt=the luminescence intensity in the absence of the compound. The values of % luminescence versus a series of compound concentrations were then plotted using non-linear regression analysis of a Sigmoidal dose-response curve generated with the equation Y=B+(T B)/1+10^((Log EC50-X)×Hill Slope), where Y=percent luminescence, B=minimum percent luminescence, T=maximum percent luminescence, X=logarithm of compound and Hill Slope=slope factor or Hill coefficient. The IC50 value was determined by the concentration causing a half-maximal percent activity.
# human PPARalpha receptor = biological target: T1, human PPARalpha receptor (Homo sapiens, UniProt Q07869); experiment: cellular GAL4 reporter gene assay (M1H) in HEK293 cells, PPARalpha; settings: agonist mode; for Efficacy vs. Fenofibric Acid / Efficacy vs. GW7647: HEK293; for EC50: HEK293, GAL4 reporter
# T1 construct: expressed in transfected cells; host or cells: HEK293 (DSMZ ACC 305)
# T1 sequence (Q07869 239-466 limits assumed): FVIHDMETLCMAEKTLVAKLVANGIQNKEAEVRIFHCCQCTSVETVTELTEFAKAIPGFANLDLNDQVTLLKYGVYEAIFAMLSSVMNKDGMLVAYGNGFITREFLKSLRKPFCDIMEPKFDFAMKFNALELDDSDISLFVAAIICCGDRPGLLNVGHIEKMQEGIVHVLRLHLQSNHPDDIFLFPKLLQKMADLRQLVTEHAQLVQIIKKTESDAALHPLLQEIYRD
# Experimental: The compounds BIZ-102 (Example 2), BIZ-103 (Example 5) and BIZ-106 were tested at the human PPARalpha receptor in a cellular GAL4 Reporter gene assay. The assay was run in agonist and antagonist mode to detect agonistic as well as antagonistic activities of the tested compounds.
# Performance of the GAL4 cellular reporter assay:
# Day 1: Cells were seeded in 96 well plates in plating medium (MEM with serum), incubation overnight at 37° C., 5% CO2.
# Day 2: Removal of plating medium
# Addition of PEI-based transfection agent
# Incubation for 4-6 hours at 37° C., 5% CO2
# Addition of assay medium (MEM with serum)
# Addition of compounds (dilution series was generated in MEM with serum)
# Incubation overnight at 37° C., 5% CO2
# Day 3: Removal of assay medium (16-20 hours after compound addition)
# Addition of Passive Lysis Buffer (Promega)
# 15 mins incubation at room temperature
# Addition of luciferase buffers and measurement in a dual-flash procedure
# (§1) The assays were done in HEK293 cells (DSMZ ACC 305). The plasmids used in the GAL4 assay system were derivatives of Stratagene's M2H plasmids: the reporter plasmid pFR-Luc (containing a synthetic promoter with five tandem repeats of the yeast GAL4 binding sites that control expression of the Photinus pyralis (American firefly) luciferase gene), and pCMV-BD (for fusions of nuclear receptor ligand binding domains to the DNA-binding domain of the yeast protein GAL4). In order to improve experimental accuracy, a second reporter—Renilla reniformis luciferase, driven by a constitutive promoter—was included as an internal control. Using the control reporter (Renilla Luciferase) allowed corrections for variations in experimental handling, e.g. transfection efficacy, cell viability, pipetting errors, cell lysis efficiency and assay efficiency.
# Primary read out of the assays was loaded into PhAST (Phenex Assay and Screening Tool) and checked for assay quality (generation of SB and Zprime values). […] Within PhAST there are two measured and one calculated data layers:
# LAYER1 (measured)—contains the activity values of the firefly luciferase activities and is a direct measure for modulation of the cofactor binding properties of the Nuclear Receptors by the tested compounds.
# LAYER2 (measured)—contains the activity values of the renilla luciferase activities and is used as normalisation layer. As the renilla luciferase is expressed under control of the constitutively active CMV promoter, moderate well-to-well differences can be used to correct for variations in experimental handling.
# LAYER3 (calculated)—is calculated according to the following equation: […]
# 1000*Firefly luciferase value/Renilla luciferase value
# These normalised values are, as well as LAYER1, a measure for the modulation of the cofactor binding properties of the nuclear receptors by the tested compounds.
# human PPARgamma = biological target: T2, human PPARgamma (Homo sapiens, UniProt P37231); experiment: cellular GAL4 reporter gene assay, agonist mode, PPARgamma
# T2 construct: expressed in transfected cells; host or cells: HEK293 (DSMZ ACC 305)
# T2 sequence (P37231 238-503 limits assumed): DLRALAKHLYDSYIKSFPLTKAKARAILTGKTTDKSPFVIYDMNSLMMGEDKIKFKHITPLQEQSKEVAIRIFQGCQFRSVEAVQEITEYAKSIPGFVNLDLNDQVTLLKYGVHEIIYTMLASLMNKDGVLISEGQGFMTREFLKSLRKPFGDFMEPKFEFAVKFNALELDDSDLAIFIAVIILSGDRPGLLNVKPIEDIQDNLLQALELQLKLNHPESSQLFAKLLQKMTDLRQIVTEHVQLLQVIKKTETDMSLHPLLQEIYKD
# From the text: as §1, with “M2H” left out, “reporter-Renilla” for “reporter—Renilla”, “promoter-was” for “promoter—was”, “efficiency. […] The compounds BIZ-102 and BIZ-103 were tested at the human PPARbeta/delta and PPARgamma receptors using the same cellular GAL4 Reporter gene assays as in Example 6. The assays were run in agonist mode to detect agonistic activities of the tested compounds.” for “efficiency.”
# human PPARbeta/delta = biological target: T3, human PPARbeta/delta (Homo sapiens, UniProt Q03181); experiment: cellular GAL4 reporter gene assay, agonist mode, PPARbeta/delta
# T3 construct: expressed in transfected cells; host or cells: HEK293 (DSMZ ACC 305)
# T3 sequence (Q03181 211-439 limits assumed): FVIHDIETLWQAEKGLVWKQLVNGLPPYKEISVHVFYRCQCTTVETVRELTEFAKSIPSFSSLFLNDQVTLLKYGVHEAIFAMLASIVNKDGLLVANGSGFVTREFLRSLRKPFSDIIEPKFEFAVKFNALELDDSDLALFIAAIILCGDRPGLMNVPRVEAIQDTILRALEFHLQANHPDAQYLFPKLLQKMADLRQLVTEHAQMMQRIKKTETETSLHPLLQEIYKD
# From the text: as §1, with “M2H” left out, “reporter-Renilla” for “reporter—Renilla”, “promoter-was” for “promoter—was”, “efficiency. […] The compounds BIZ-102 and BIZ-103 were tested at the human PPARbeta/delta and PPARgamma receptors using the same cellular GAL4 Reporter gene assays as in Example 6. The assays were run in agonist mode to detect agonistic activities of the tested compounds.” for “efficiency.”
# ARPE-19 cells = experiment: oxidative stress (tert-butyl hydroperoxide) cytolysis assay in ARPE-19 retinal pigment epithelial cells; settings: fenofibric acid 25 μM, BIZ-101 10 μM
# Experimental: In order to evaluate the potential of BIZ-101 to protective the eye from oxidative stress damage the compound was tested in a cell based assay. Oxidative stress was induced in an ARPE-19 cell line using tert-butyl hydroperoxide at different concentrations. The cellular viability was kinetically monitored and measured by analysing the plasma membrane integrity based on the incorporation of a non-permeant and fluorescent DNA intercalating agent that selectively stain cytolytic cells with comprised plasma membranes.
# (§2) The ARPE-19 cell line was seeded and cultured in DMEM-F12 medium+10% SVF for 24 hrs in a 96 well plate. Cells were pre-treated or not with either fenofibric acid (25 μM) or compound BIZ-101 (10 μM) during this 24 hr period. After 24 hrs, the different concentrations of t-butyl hydroperoxide were added in the presence of a fluorescent DNA intercalating agent for the following monitoring. Live content time-lapse imaging was performed with a sampling rate of 1 image every 2 hr over a 96 hrs period. The number of fluorescent/cytolytic cells were counted and reported during the experiment. The treatment conditions were tested in one experiment session in a triplicate format.
# Fenofibric acid was used at 25 μM and was ordered from Sigma Aldrich. The day of the pre-treatment, a 25 mM stock solution of fenofibric acid was prepared in DMSO and diluted in the complete culture medium at 25 μM. 100 μL of this solution or 100 μL of complete culture medium+0.1% DMSO replaced the 100 μL of the complete culture medium already present in the well. The day of the treatment with t-butyl hydroperoxide, a 2 times concentrated solution of fenofibric acid was freshly diluted in the complete culture medium and 50 μL of this solution or 50 μL of complete culture medium+0.2% DMSO were added to the 100 μL of the culture medium already present in the well.
# Compound BIZ-101 was tested at a final concentration of 10 μM. A 10 mM predilution was prepared in DMSO from a 10 mM stock solution. The 10 mM solution of BIZ 101 was diluted in the complete culture medium at 10 μM. 100 μL, of this solution or 100 μL of the complete culture medium+0.1% DMSO replaced the 100 μL, of the complete culture medium already present in the well. The day of the treatment with t-butyl hydroperoxide, a 2 times concentrated solution of BIZ 101 was freshly diluted in the complete culture medium and 50 μL of this solution or 50 μL of complete culture medium+0.2% DMSO were added to the 100 μL of the culture medium already present in the well.
# Preparation of the tert-butyl hydroperoxide [tBHP] solution: 0, 0.01 mM, 0.03 mM, 0.1 mM, 0.3 mM, 1 mM, 3 mM and 10 mM. A 4 times concentrated solution of tBHP was freshly diluted in the complete culture medium for each of the concentrations to be tested. 50 μL of the 4 times concentrated solution was added to the 150 μL of the cultured medium.
# In order to evaluate the potential of BIZ-102 to protect the eye from oxidative stress damage the compound was tested in a cell based assay similar to Example 24 with the following changes. The oxidative stress in the ARPE-19 cell line was induced by using 3 different concentrations of tBHP: 10 μM, 30 μM and 100 μM and BIZ-102 was tested in 2 different concentrations: 1 μM and 10 μM.
# as §2, with “with” for “with either fenofibric acid (25 μM) or”, “BIZ-102 (1 μM and 10” for “BIZ-101 (10”
# Compound BIZ-102 was tested at a final concentration of 1 and 10 μM. […]
Compound,Efficacy vs. Fenofibric Acid (human PPARalpha receptor) [%],Efficacy vs. GW7647 (human PPARalpha receptor) [%],EC50 (human PPARalpha receptor),further results
"CC/C=C\C/C=C\C/C=C\C/C=C\C/C=C\CCCCOC(CC)C(=O)O (centres unmarked) [BIZ-110, 2-((5Z,8Z,11Z,14Z,17Z)-icosa-5,8,11,14,17-pentaen-1-yloxy) butanoic Acid]",–,–,–,dose dependence of inhibitory effect on the NF-κB pathway (NF-κB pathway): dose dependent; complete inhibition of the NF-κB pathway (NF-κB pathway; at high concentration): completely inhibited
"CC/C=C\C/C=C\C/C=C\C/C=C\C/C=C\C/C=C\CC(CC)C(=O)O (centres unmarked) [BIZ-106, 2-ethyl (4Z,7Z,10Z,13Z,16Z,19Z)-docosa-4,11,10,13,16,19-hexaenoic Acid]",25,80,~5 µM and 5 µM,–
CCCCCCCCCCCCCCSC(C)C(=O)O (centres unmarked) [BIZ-103],55,180,–,EC50 (human PPARgamma): 1.6 µM; PPARgamma efficacy vs. Rosiglitazone (human PPARgamma): 20%; EC50 (human PPARbeta/delta): 8.9 µM; PPARbeta/delta efficacy vs. GW501516 (human PPARbeta/delta): 18%
CCCCC/C=C\C/C=C\C/C=C\C/C=C\CCCC(=O)O [BIZ-107],30,100,~26 µM and 26 µM,–
"CC(C)(Oc1ccc(C(=O)c2ccc(Cl)cc2)cc1)C(=O)O [fenofibric acid, reference compound]",–,–,10 to 18 µM,"dose dependent cytotoxicity of tBHP (ARPE-19 cells; 6 hrs after addition of tBHP, 24 hr pre-treatment): slightly decreased; protective effects against tBHP cytotoxicity (ARPE-19 cells; 24 hrs after addition of t-BHP): more efficient"
